Data as given in PubChem BioAssay AID1259407 (Chemical Carcinogenesis Research Information System (CCRIS), 2018).
Active and inactive are the calls of the source. No rule for the calls is given here.

Tested on: CCRIS mutagenicity, Ames/micronucleus/aberration tests
Test: CCRIS mutagenicity studies
[1] = Test System: AMES SALMONELLA TYPHIMURIUM, Strain/Indicator: TA98, Metabolic Activation: NONE, Method: STANDARD PLATE
[2] = Test System: AMES SALMONELLA TYPHIMURIUM, Strain/Indicator: TA98, Metabolic Activation: RAT, LIVER, S-9, AROCLOR 1254, Method: STANDARD PLATE

Compound: CC(=O)Nc1ccc(Sc2ccccc2)cc1
- mutagenic call [1]: inactive; negative
- mutagenic call [2]: active; positive

Compound: OC1C=Cc2c(cc3ccc4cccc5ccc2c3c45)C1 (stereo unspecified)
- mutagenic call [2]: active; positive

Compound: COc1ccc(O)c2c(=O)c3c(OC)cc4c(c3oc12)C1CCOC1O4 (stereo unspecified)
- mutagenic call (Test System: AMES SALMONELLA TYPHIMURIUM, Strain/Indicator: TA98, Metabolic Activation: RAT, LIVER, S-9, PHENOBARBITAL, Method: STANDARD PLATE): inactive; negative
- mutagenic call (Test System: AMES SALMONELLA TYPHIMURIUM, Strain/Indicator: TA100, Metabolic Activation: RAT, LIVER, S-9, PHENOBARBITAL, Method: STANDARD PLATE): inactive; negative

Compound: O=c1[nH]c2ccccc2o1
- mutagenic call (Test System: AMES SALMONELLA TYPHIMURIUM, Strain/Indicator: TA98, Metabolic Activation: HAMSTER, LIVER, S-9, AROCLOR 1254, Method: STANDARD PLATE): inactive; negative
- mutagenic call [1]: inactive; negative
- mutagenic call [2]: inactive; negative
- mutagenic call (Test System: AMES SALMONELLA TYPHIMURIUM, Strain/Indicator: TA100, Metabolic Activation: HAMSTER, LIVER, S-9, AROCLOR 1254, Method: STANDARD PLATE): inactive; negative
- mutagenic call (Test System: AMES SALMONELLA TYPHIMURIUM, Strain/Indicator: TA100, Metabolic Activation: NONE, Method: STANDARD PLATE): inactive; negative
- mutagenic call (Test System: AMES SALMONELLA TYPHIMURIUM, Strain/Indicator: TA100, Metabolic Activation: RAT, LIVER, S-9, AROCLOR 1254, Method: STANDARD PLATE): inactive; negative
- mutagenic call (Test System: AMES SALMONELLA TYPHIMURIUM, Strain/Indicator: TA1535, Metabolic Activation: HAMSTER, LIVER, S-9, AROCLOR 1254, Method: STANDARD PLATE): inactive; negative
- mutagenic call (Test System: AMES SALMONELLA TYPHIMURIUM, Strain/Indicator: TA1535, Metabolic Activation: NONE, Method: STANDARD PLATE): inactive; negative
- mutagenic call (Test System: AMES SALMONELLA TYPHIMURIUM, Strain/Indicator: TA1535, Metabolic Activation: RAT, LIVER, S-9, AROCLOR 1254, Method: STANDARD PLATE): inactive; negative
- mutagenic call (Test System: AMES SALMONELLA TYPHIMURIUM, Strain/Indicator: TA1537, Metabolic Activation: HAMSTER, LIVER, S-9, AROCLOR 1254, Method: STANDARD PLATE): inactive; negative
- mutagenic call (Test System: AMES SALMONELLA TYPHIMURIUM, Strain/Indicator: TA1537, Metabolic Activation: NONE, Method: STANDARD PLATE): inactive; negative
- mutagenic call (Test System: AMES SALMONELLA TYPHIMURIUM, Strain/Indicator: TA1537, Metabolic Activation: RAT, LIVER, S-9, AROCLOR 1254, Method: STANDARD PLATE): inactive; negative
- mutagenic call (Test System: AMES SALMONELLA TYPHIMURIUM, Strain/Indicator: TA1538, Metabolic Activation: HAMSTER, LIVER, S-9, AROCLOR 1254, Method: STANDARD PLATE): inactive; negative
- mutagenic call (Test System: AMES SALMONELLA TYPHIMURIUM, Strain/Indicator: TA1538, Metabolic Activation: NONE, Method: STANDARD PLATE): inactive; negative
- mutagenic call (Test System: AMES SALMONELLA TYPHIMURIUM, Strain/Indicator: TA1538, Metabolic Activation: RAT, LIVER, S-9, AROCLOR 1254, Method: STANDARD PLATE): inactive; negative
- mutagenic call (Test System: MOUSE LYMPHOMA, Strain/Indicator: L5178Y (TK+/TK-), Metabolic Activation: NONE, Method: SUSPENSION/PLATE): active; positive. reevaluation of results: equivocal
- mutagenic call (Test System: MOUSE LYMPHOMA, Strain/Indicator: L5178Y (TK+/TK-), Metabolic Activation: RAT, LIVER, S-9, AROCLOR 1254, Method: SUSPENSION/PLATE): inactive; negative. reevaluation of results: negative

Compound: Cc1ccc(N=[N+]([O-])c2ccc(C)c([N+](=O)[O-])c2)cc1[N+](=O)[O-]
- mutagenic call (Test System: AMES SALMONELLA TYPHIMURIUM, Strain/Indicator: TA98, Metabolic Activation: NONE, Method: SUSPENSION/PLATE): inactive; negative
- mutagenic call (Test System: AMES SALMONELLA TYPHIMURIUM, Strain/Indicator: TA98, Metabolic Activation: RAT, LIVER, S-9, PHENOBARBITAL AND 5,6-BENZOFLAVONE, Method: SUSPENSION/PLATE): inactive; negative
- mutagenic call (Test System: AMES SALMONELLA TYPHIMURIUM, Strain/Indicator: TA100, Metabolic Activation: NONE, Method: SUSPENSION/PLATE): inactive; negative
- mutagenic call (Test System: AMES SALMONELLA TYPHIMURIUM, Strain/Indicator: TA100, Metabolic Activation: RAT, LIVER, S-9, PHENOBARBITAL AND 5,6-BENZOFLAVONE, Method: SUSPENSION/PLATE): inactive; negative
